Data set [1] deals with blood-perfused sino-atrial preparation. Kind of data set: Determination of sinus rate on blood-perfused sino-atrial preparation. The following applies: vs sinus rate prior to injection; for activation at 0.003 mg: dose 3.0 ug; for activation at 0.01 mg: dose 10.0 ug; for activation at 0.03 mg: dose 30.0 ug; for activation at 0.0001 mg: dose 0.1 ug; for change of sinus rate(%): listed as 8-methyl-6-(4-met-hylimidazol-1-)-( 4H)-3,1-benzothia-zin-2-one. Further details: species or system dog. The method, then:
Mongrel dogs of either sex weighing 7-12kg were anesthetized with sodium pentoba rbital(30mg/kg i.v.). Heparin of 1000 unit/kg was administered to each animal intravenously and the animals were exsanguinated. Heart was removed and put in Krebs-Henselelt solution. Catheter was inserted into blood vessel between right coronary artery and SA nodes. Right artrium and catheter were together removed. Blood supplied from carotid artery of donor dog of either sex weighing 15-25kg, was supplied to blood vessel cather from right coronary artery and SA node under constant blood pressure of 100mmHg by use of Peristaltic pump. The resting tension of right atrial muscle was made to 2g. The sinus rate triggered by spontaneous contraction of atrial muscle was determined on Narco physiograph(Narcotrace 4). Detailed method was reported by S. Chiba, et al. in Japanese Pharmacology 25, 433-439(1975). Doses of test compounds were injected into flowing blood in gum tube connected to the near part of the catheter inserted into right coronary artery. The effects on sinus rate were shown as percent compared with the sinus rate prior to the injection of the test compounds.

For data set [2], the system named is blood perfused papillary muscle preparation. Put plainly: Determination of contractile power on blood perfused papillary muscle preparation. Further details: species or system dog. The following applies: for ED 30: dose giving 30% increase of developed tension, least-square method. The method, then:
Dogs of either sex weighing 7-12kg were anesthetized with sodium pentobarbital (30mg/kg,i.v.). Heparin of 1000 unit/kg was administered to each animal intravenously. The animals were exsanguinated and heart was removed. The preparation was perfused through the cannulated anterior septal artery(ASA) with arterial blood from a donor dog at constant pressure of about 100 mmHg. Donor dogs were anesthetized with sodium pentobarbital (30mg/kg, i.v.). Heparin of 1000 units/kg was administered intravenously. The papillary muscle was stimulated with rectangular pulses of 5- ms duration and about 1.5 times the threshold voltage at a rate of 120 stimuli/min through bipolar electrodes.Resting tension was made to 2 g.The developed tension of papillary muscle was determined by Isometric tresducer.Detailed method was reported by Matsumoto in Am. J. Physiol. 218, 1459-1463 (1970). Test compound at the doses of 10-30ul was injected in flowing blood in the gum tube connected to catheter. The inotropic effect of the test compounds was shown by change percent of developed tension compared with that prior to the administration of the test compounds.ED₃₀ value was determined by least-square method and the results were shown in the Table 1.

A short description of data set [3]: Acute toxicity test in ICR mouse, intravenous. The following applies: in vivo. The method, then:
Acute toxicity test of 6-(4-methylimidazol-1-yl)-(4H)-3,1-benzothiazin-2-one was conducted in ICR mouse. The test compound was dissolved in a mixed solvent of saline and DMF (2:1) and was administered intraveneously to five mice at a dose of 30mg/kg body weight. […] Accordingly, LD₅₀ of the cmpound is 30mg/kg or more.

The target of data set [4] is cyclic AMP phosphodiesterase. Put plainly: Effect on cyclic AMP phosphodiesterase isolated from dog's heart. The format is biochemical. The following applies: substrate 1.0 uM; for Inhibitory effect on PDE activity: values fall with concentration. The protocol:
Dogs weighing 10 kg were anesthetized with sodium pentobarbital and heparin was administered intravenously. Heart was removed. Two to four grams of left ventricular muscle was obtained and the tissue was rinsed in ice-cold salin. Left ventricular muscle was homogenized in10 volumes of homogenzing buffer(Tris-HCl, pH 7.8). Homogenate was then centrifuged at 100,000 X g for 40 minutes, after which the supernatent was removed. The pellet was resuspended in homogenizing buffer, centrifuged as before and the supernatent obtained as discarded. The pellet was resuspended in 10 volumes of homogenizing buffer containing Triton X-100 and Brij 30, and incubated overnight at 4°C. The detergent-extracted proteins were then separated by centrifugation at 100,000 X g for 40 monutes. The detergent-extracted protein was dialyzed against 70mM sodium acetate /5mM 2-mercaptoethanol(pH 6.5) for 5 hours. The dialyzed extract was applied to a DEAE-cellulose column and eluted using a 70-1000 mM sodium acetate gradient. Appropriate fractions were pooled and concentrated using Amicon ultrafiltration cell. Following concentration, the protein was diluted with ethylene glycol and stored at -20°C.
Phosphodiesterase activity was measured in a reaction medium (40mM Tris-HCl, pH 8.0). The concentration of substrate was 1.0 uM. The IC 50 values( concentration which produced 50% inhibition of substrate hydrolysis) for the various compounds examined were determined from concentration-response curves. Detailed method of this experiment was reported in J.Mol.Cell Cardiol. 19, 1025-1036 (1987).

Data set [5] in a line: Acute toxicity test in rats, oral. The following applies: rat, in vivo. The method, then:
Acute toxicity test of 6-(4-methylimidazol-1-yl)-(4H)-3,1-benzoxazin-2-one was conducted in Spraque-Dawley rats. The test compound was suspended in 5% arabic gum and was administered orally to six rats at a dose of 300mg/kg body weight.
Accordingly, LD 50 of the compound is 300 mg/kg or more.

Data set [6] in a line: Acute toxicity test in mice, oral. The following applies: mouse, in vivo. The method, then: Acute toxicity test of 6-(4-methylimidazol-1-yl)-(4H)-3,1-benzothiazine-2-thione was conducted in BALB/C mice. The test compound was suspended in 5% arabic gum solution and administered orally to five mice at a dose of 200 mg/kg body weight by gastric tubing. […] Accordingly, LD₅₀ of the compound is 200mg/kg or more.

[7] abbreviates: Canis lupus familiaris, dose 1.0 ug, read-out: change of sinus rate(%).
The mark [8] stands for this setting: Canis lupus familiaris, read-out: change of sinus rate(%).
[9] abbreviates: at the ED 30 dose (30% by definition).

We go through 11 compounds from patent publication EP0510235A1, “Novel benzoxazine or benzothiazine derivatives and process for the preparation of the same” (DONG-A PHARM. CO., LTD., priority 1991, dated 1992).

Structures are written as SMILES. Values joined by “and” are separate entries in the source; they are usually repeats but may differ in a detail not shown here. Equal entries are not always repeated.

`Cc1cn(-c2ccc3c(c2)COC(=O)N3)c(C)n1` [6-(2,4-dimethylimidzol-1-yl)-(4H)-3,1-benzoxazin-2-one]: the activation at 0.001 mg in data set [1] (setting [7]) was 0%. Moreover, in data set [1] (setting [8]), the activation at 0.003 mg came to 0%, the activation at 0.01 mg was 0% and the activation at 0.03 mg is 1.67%. Besides, the “ED 30” value in data set [2] is reported as “ED 30 : 81.89 ug”.

On to `CCc1nc(C)cn1-c1ccc2c(c1)COC(=O)N2` [6-(2-ethyl-4-methylimidazol-1-yl)-(4H)-3,1-benzoxazin-2-one], for which the activation at 0.001 mg in data set [1] (setting [7]) came to 0%. In addition, in data set [1] (setting [8]), the activation at 0.003 mg was determined as 0%, the activation at 0.01 mg stood at 0.83% and the activation at 0.03 mg worked out at 1.65%. For the same compound, in data set [2], the “ED 30” value was “ED 30 : 269 ug”.

On to `Cc1cn(-c2cc(C)c3c(c2)CSC(=O)N3)cn1` [8-methyl-6-(4-methylimidazol-1-yl)-(4H)-3,1-benzothiazin-2-one], for which, in data set [1] (setting [8]), the activation at 0.0001 mg turned out to be 1.7%. For the same compound, the activation at 0.003 mg in data set [1] (setting [8]) came to 3.3%. The results for the “change of sinus rate(%)” value in data set [1] (dose 0.3 ug) and in data set [1] (dose 1.0 ug) were 4.8% and 8.3%, respectively. For the same compound, the “change of contractivity(%)” value in data set [2] (setting [9]) is on record as 30.0%. The “ED 30” value in data set [2] is given as “ED 30 = 5.0 ug”; in data set [2] (listed as 8-methyl-6-(4-met-hylimidazol-1-)-( 4H)-3,1-benzothia-zin-2-one), “ED 30 = 0.6 ug”.

For `Cc1cn(-c2cc(C)c3c(c2)COC(=O)N3)cn1` [8-methyl-6-(4-methylimidazol-1-yl)-(4H)-3,1-benzoxazin-2-one], in data set [1] (setting [8]), the activation at 0.0001 mg is 0.8% and the activation at 0.003 mg was determined as 5.8%. In data set [1] (Canis lupus familiaris, dose 0.3 ug, read-out: change of sinus rate(%)), the activation at 0.0003 mg came to 1.7%. The activation at 0.001 mg in data set [1] (setting [7]) worked out at 6.6%. Also, in data set [2] (setting [9]), the “change of contractivity(%)” value was 30.0%. In data set [2], the “ED 30” value is on record as “ED 30 = 1.2 ug”.

For the compound `Cc1cn(-c2ccc3c(c2)CSC(=O)N3)cn1` [6-(4-methylimidazol-1-yl)-(4H)-3,1-benzothiazin-2-one], the activation at 0.003 mg in data set [1] (setting [8]) worked out at 2.3%. Besides, the activation at 0.03 mg in data set [1] (setting [8]) was determined as 5.6%. For the same compound, the “change of contractivity(%)” value in data set [2] (setting [9]) was 30%; in data set [2] (dose 1.0 ug injected into perfusing blood, developed tension vs before administration), 0.0%; in data set [2] (dose 3.0 ug injected into perfusing blood, developed tension vs before administration), 7.2% and 1.5%; in data set [2] (dose 10.0 ug injected into perfusing blood, developed tension vs before administration), 20.5% and 11.5%; in data set [2] (dose 30.0 ug injected into perfusing blood, developed tension vs before administration), 30.7% and 23.3%. Also, the LD50 (in general, the dose at which mortality reaches 50%) in data set [3] was ≥ 30 mg/kg.

As to `Cc1cn(-c2ccc3c(c2)COC(=O)N3)cn1` [6-(4-methylimidazol-1-yl)(4H)-3,1-benzoxazin-2-one], in data set [1] (setting [7]), the activation at 0.001 mg was found to be 0%. Also, the activation at 0.003 mg in data set [1] (setting [8]) worked out at 2.52%. Also, the activation at 0.01 mg in data set [1] (setting [8]) worked out at 5.04%. Besides, in data set [2], the “ED 30” value is listed as “ED 30 : 10.4 ug”. It took 12.8 µM to reach half-maximal inhibition in data set [4] (50% inhibition of substrate hydrolysis) (IC50). The “Inhibitory effect on PDE activity” value was determined as 95.1 in data set [4] (test compound 0.1 uM), 77.5 in data set [4] (test compound 1 uM), 51.7 in data set [4] (test compound 10 uM) and 35.8 in data set [4] (test compound 100 uM). Besides, the median lethal dose (LD50) in data set [5] was ≥ 300 mg/kg.

Turning to `O=C1Nc2ccc(-n3ccnc3)cc2CS1` [6-(imidazol-1-yl)-(4H)-3,1-benzothiazin-2-one], in data set [2] (setting [9]), the “change of contractivity(%)” value is given as 30%.

`Cc1cn(-c2ccc3c(c2)CSC(=S)N3)cn1` [6-(4-methylimidazol-1-yl)-(4H)-3,1-benzothiazine-2-thione]: the LD50 in data set [6] was ≥ 200 mg/kg.

Take `Cc1nccn1-c1ccc2c(c1)COC(=O)N2` [6-(2-methylimidazol-1-yl)-(4H)-3,1-benzoxazine-2-one]: the activation at 0.001 mg in data set [1] (setting [7]) stood at 0%. Also, in data set [1] (setting [8]), the activation at 0.003 mg came to 0%, the activation at 0.01 mg was found to be 0.86% and the activation at 0.03 mg turned out to be 3.42%. In addition, in data set [2], the “ED 30” value was “ED 30 > 1000 ug”.

For `O=C1Nc2ccc(-n3cnc4ccccc43)cc2CO1` [6-(benzimidazol-1-yl)-(4H)-benzoxazin-2-one], in data set [1] (setting [7]), the activation at 0.001 mg stood at 0%. In data set [1] (setting [8]), the activation at 0.003 mg was 0%. Further, the activation at 0.01 mg in data set [1] (setting [8]) is 0.3%. In addition, the activation at 0.03 mg in data set [1] (setting [8]) is 0.75%. The “ED 30” value in data set [2] is on record as “ED 30 > 1000 ug”. Further, the “Inhibitory effect on PDE activity” value was 95.5 in data set [4] (test compound 0.1 uM, listed as 6-(benzimidazol-1-yl)-(4H)-3,1-benzoxazin-2-one); 90.4 in data set [4] (test compound 1 uM, listed as 6-(benzimidazol-1-yl)-(4H)-3,1-benzoxazin-2-one); 72.3 in data set [4] (test compound 10 uM, listed as 6-(benzimidazol-1-yl)-(4H)-3,1-benzoxazin-2-one); 49.5 in data set [4] (test compound 100 uM, listed as 6-(benzimidazol-1-yl)-(4H)-3,1-benzoxazin-2-one).

Turning to `O=C1Nc2ccc(-n3ccnc3)cc2CO1` [6-(imidazol-1-yl)-(4H)-3,1-benzoxazin-2-one], the activation at 0.001 mg in data set [1] (setting [7]) came to 0%. The activation at 0.003 mg in data set [1] (setting [8]) worked out at 0.84%. The activation at 0.01 mg in data set [1] (setting [8]) came out at 2.52%. Besides, the activation at 0.03 mg in data set [1] (setting [8]) worked out at 6.67%. Besides, the “ED 30” value in data set [2] is given as “ED 30 > 1000 ug”. Moreover, the “Inhibitory effect on PDE activity” value in data set [4] (test compound 0.1 uM) is recorded as 98.4; in data set [4] (test compound 1 uM), 74.5; in data set [4] (test compound 10 uM) it was 52.2; in data set [4] (test compound 100 uM), 28.8.
